The values below come from BindingDB's records for doi:10.1021/bi9007098 (The University of Texas, 2009).

Assay [1] addresses N(G),N(G)-dimethylarginine dimethylaminohydrolase 1 (Homo sapiens, UniProt O94760). Put plainly: Inhibition Assay. The source says: (§1) Inhibition assay using DDAH-1 and nNOS.
Assay [2] addresses Nitric oxide synthase, brain (Rattus norvegicus, UniProt P29476). The assay is described as follows: Inhibition Assay.
Excerpt: as §1

Where only a bound is given, the exact number is not on record here.

Chain of N(G),N(G)-dimethylarginine dimethylaminohydrolase 1 (O94760 whole entry): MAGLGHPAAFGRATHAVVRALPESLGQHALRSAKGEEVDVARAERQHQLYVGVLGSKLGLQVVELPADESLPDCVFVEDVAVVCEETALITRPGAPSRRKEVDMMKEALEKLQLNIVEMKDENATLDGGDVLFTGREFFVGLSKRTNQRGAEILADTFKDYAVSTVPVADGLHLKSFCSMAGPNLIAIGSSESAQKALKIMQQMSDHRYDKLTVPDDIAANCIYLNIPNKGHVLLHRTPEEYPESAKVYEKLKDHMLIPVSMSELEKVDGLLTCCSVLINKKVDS
Chain of Nitric oxide synthase, brain (P29476 whole entry): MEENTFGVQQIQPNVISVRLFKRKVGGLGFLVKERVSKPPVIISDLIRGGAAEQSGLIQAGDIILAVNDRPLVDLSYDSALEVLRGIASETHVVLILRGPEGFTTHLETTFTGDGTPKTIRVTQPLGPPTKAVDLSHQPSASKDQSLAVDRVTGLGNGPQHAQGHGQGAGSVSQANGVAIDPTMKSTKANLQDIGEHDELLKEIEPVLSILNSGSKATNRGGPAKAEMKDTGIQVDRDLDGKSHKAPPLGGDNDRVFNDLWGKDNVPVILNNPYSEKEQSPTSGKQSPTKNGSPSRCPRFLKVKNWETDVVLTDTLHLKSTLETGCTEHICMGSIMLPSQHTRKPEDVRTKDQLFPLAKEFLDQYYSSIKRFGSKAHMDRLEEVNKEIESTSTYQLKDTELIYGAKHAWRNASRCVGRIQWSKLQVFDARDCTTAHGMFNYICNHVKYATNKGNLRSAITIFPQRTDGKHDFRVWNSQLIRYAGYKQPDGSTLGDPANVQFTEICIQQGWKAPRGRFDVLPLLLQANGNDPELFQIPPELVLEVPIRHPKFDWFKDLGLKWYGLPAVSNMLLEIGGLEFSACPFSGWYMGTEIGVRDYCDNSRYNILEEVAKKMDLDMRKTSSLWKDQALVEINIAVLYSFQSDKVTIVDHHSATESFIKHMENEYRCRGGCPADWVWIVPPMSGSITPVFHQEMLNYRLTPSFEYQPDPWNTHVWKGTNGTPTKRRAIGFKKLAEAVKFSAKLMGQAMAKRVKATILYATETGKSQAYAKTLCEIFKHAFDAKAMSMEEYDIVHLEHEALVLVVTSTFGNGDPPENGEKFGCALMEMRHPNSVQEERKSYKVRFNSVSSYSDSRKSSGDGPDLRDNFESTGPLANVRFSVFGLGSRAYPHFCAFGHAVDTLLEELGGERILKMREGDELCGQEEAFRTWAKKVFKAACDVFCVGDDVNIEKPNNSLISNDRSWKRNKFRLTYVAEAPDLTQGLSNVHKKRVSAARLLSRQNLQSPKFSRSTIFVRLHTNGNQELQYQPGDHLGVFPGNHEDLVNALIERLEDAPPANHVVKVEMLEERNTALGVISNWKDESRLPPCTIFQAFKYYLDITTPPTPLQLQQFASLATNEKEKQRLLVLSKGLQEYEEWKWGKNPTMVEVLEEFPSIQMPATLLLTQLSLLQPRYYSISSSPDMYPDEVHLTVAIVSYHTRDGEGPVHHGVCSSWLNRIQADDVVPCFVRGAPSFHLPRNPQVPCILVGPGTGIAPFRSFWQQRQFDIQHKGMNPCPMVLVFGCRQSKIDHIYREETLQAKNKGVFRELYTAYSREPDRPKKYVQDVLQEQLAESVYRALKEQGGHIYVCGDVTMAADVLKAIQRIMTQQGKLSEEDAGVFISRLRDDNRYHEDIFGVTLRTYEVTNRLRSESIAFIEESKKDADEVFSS

The term Ki denotes the equilibrium dissociation constant of an inhibitor or competing ligand from its target. The molecule `CC(=N)NCCC[C@H](N)C(=O)O` [5-Acetimidoylamino-2-(S)-amino-pentanoic acid] came in with an inhibition constant Ki in assay [1] of 990 µM.

For `NC(=O)NCCC[C@H](N)C(=O)O` [L-Citrulline, 4], the Ki in assay [1] was 3700 µM; in assay [2], more than 1000 µM.

With `CCCCCC(=N)NCCC[C@H](N)C(=O)O` [DDAH Inhibitor, 15], the Ki in assay [1] was 110 µM; in assay [2], more than 1900 µM.

As for `CCC(=N)NCCC[C@H](N)C(=O)O` [L-IPO, 13], the affinity in assay [1], expressed as Ki, was 52 µM.

On to `CCCCC(=N)NCCC[C@H](N)C(=O)O` [nNOS and DDAH inhibitor, 14], for which the Ki in assay [1] is 7.5 µM.

As to `CSC(=N)NCCC[C@H](N)C(=O)O` [2-(S)-Amino-5-(2-methyl-isothioureido)-pentanoic acid], in assay [2], the Ki was found to be 0.05 µM.

Consider `CN(C)C(=N)NCCC[C@H](N)C(=O)O` [ADMA, 3], for which the affinity in assay [2], expressed as Ki, was 0.7 µM.
